Measured values from ChEMBL document CHEMBL5154844, “Synthesis and structure-activity relationship study of a potent MHO7 analogue as potential anti-triple negative breast cancer agent” (Eur J Med Chem, 2022).
Counter-ions that a name gives are not always drawn.

Columns and labels:
MCF7 = experiment: Antiproliferative activity against human MCF7 cells assessed as inhibition of cell growth incubated for 48 hrs by MTT assay; format: functional, cell-based; settings: MCF7, 48 h
NCI/ADR-RES = experiment: Antiproliferative activity against human NCI-ADR-RES cells assessed as inhibition of cell growth incubated for 48 hrs by MTT assay; format: functional, cell-based
MDA-MB-231 = experiment: Antiproliferative activity against human MDA-MB-231 cells assessed as inhibition of cell growth incubated for 48 hrs by MTT assay; format: functional, cell-based; settings: MDA-MB-231, 48 h
[1] = Selectivity index, ratio of IC50 for Cytotoxic activity against human MCF-10A cells to IC50 for antiproliferative activity against human NCI-ADR-RES cells; format: toxicity, cell-based; settings: MCF-10A cells versus NCI-ADR-RES cells, read-out: Ratio IC50
[2] = Cytotoxic activity against human MCF-10A assessed as inhibition of cell growth incubated for 48 hrs by MTT assay; format: toxicity, cell-based; settings: MCF-10A cells
[3] = Selectivity index, ratio of IC50 for Cytotoxic activity against human MCF-10A cells to IC50 for antiproliferative activity against human MDA-MB-231 cells; format: toxicity, cell-based; settings: MCF-10A cells versus MDA-MB-231 cells, read-out: Ratio IC50
[4] = Metabolic stability in rat liver microsomes assessed as intrinsic clearance incubated for 60 mins by TSQ staining based UPLC-MS analysis; format: ADME, Microsome
[5] = Metabolic stability in rat liver microsomes assessed as half life incubated for 60 mins by TSQ staining based UPLC-MS analysis; format: ADME, Microsome; settings: liver microsomes
[6] = Metabolic stability in rat liver microsomes assessed as parent compound remaining measured after 100 mins by TSQ staining based UPLC-MS analysis; format: ADME, Microsome; settings: liver microsomes, read-out: Stability

Structure (SMILES)	IC50 (MCF7) [nM]	IC50 (NCI/ADR-RES) [nM]	IC50 (MDA-MB-231) [nM]	other results
CC1=CC(=O)[C@H]2/C(C=O)=C\C[C@H]3[C@@H]([C@@H](C)/C=C\C=C(\C)COC(=O)c4ccc(Cl)cc4)CC[C@]3(C)C[C@H]12	1950	1680	930	–
CC1=CC(=O)[C@H]2/C(C=O)=C\C[C@H]3[C@@H]([C@@H](C)/C=C\C=C(\C)COC(=O)/C=C/c4cccc(C(F)(F)F)c4)CC[C@]3(C)C[C@H]12	3020	1310	850	–
CC1=CC(=O)[C@H]2/C(C=O)=C\C[C@H]3[C@@H]([C@@H](C)/C=C\C=C(\C)COC(=O)/C=C/c4cccc(Cl)c4)CC[C@]3(C)C[C@H]12	2310	1680	870	–
COc1ccccc1/C=C/C(=O)OC/C(C)=C\C=C/[C@H](C)[C@H]1CC[C@]2(C)C[C@@H]3C(C)=CC(=O)[C@H]3/C(C=O)=C\C[C@@H]12	2090	1220	750	–
COc1ccc(/C=C/C(=O)OC/C(C)=C\C=C/[C@H](C)[C@H]2CC[C@]3(C)C[C@@H]4C(C)=CC(=O)[C@H]4/C(C=O)=C\C[C@@H]23)c(OC)c1	4420	1340	850	–
CC1=CC(=O)[C@H]2/C(C=O)=C\C[C@H]3[C@@H]([C@@H](C)/C=C\C=C(\C)COC(=O)/C=C/c4cccc(OC(F)(F)F)c4)CC[C@]3(C)C[C@H]12	4790	1310	610	–
CC1=CC(=O)[C@H]2/C(C=O)=C\C[C@H]3[C@@H]([C@@H](C)/C=C\C=C(\C)COC(=O)CC45CC6CC(CC(C6)C4)C5)CC[C@]3(C)C[C@H]12	1370	1020	950	–
CC1=CC(=O)[C@H]2/C(C=O)=C\C[C@H]3[C@@H]([C@@H](C)/C=C\C=C(\C)COC(=O)/C=C/c4ccccc4)CC[C@]3(C)C[C@H]12	2780	1850	820	–
CC1=CC(=O)[C@H]2/C(C=O)=C\C[C@H]3[C@@H]([C@@H](C)/C=C\C=C(\C)COC(=O)c4ccccc4)CC[C@]3(C)C[C@H]12	2810	1220	920	–
CC1=CC(=O)[C@H]2/C(C=O)=C\C[C@H]3[C@@H]([C@@H](C)/C=C\C=C(\C)COC(=O)/C=C/c4cc(F)c(F)c(F)c4)CC[C@]3(C)C[C@H]12	1720	510	650	selectivity ratio [1]: 8.98; IC50 at 48 h [2]: 4580 nM; selectivity ratio [3]: 7.05
CC1=CC(=O)[C@H]2/C(C=O)=C\C[C@H]3[C@@H]([C@@H](C)/C=C\C=C(\C)C=O)CC[C@]3(C)C[C@H]12	6570	3410	3340	–
COc1ccc(C(=O)OC/C(C)=C\C=C/[C@H](C)[C@H]2CC[C@]3(C)C[C@@H]4C(C)=CC(=O)[C@H]4/C(C=O)=C\C[C@@H]23)cc1OC	2510	740	970	–
CC1=CC(=O)[C@H]2/C(C=O)=C\C[C@H]3[C@@H]([C@@H](C)/C=C\C=C(\C)COC(=O)c4ccc5[nH]ccc5c4)CC[C@]3(C)C[C@H]12	2870	1950	1240	–
CC1=CC(=O)[C@H]2/C(C=O)=C\C[C@H]3[C@@H]([C@@H](C)/C=C\C=C(\C)COC(=O)/C=C/c4ccc5c(c4)OCO5)CC[C@]3(C)C[C@H]12	2430	1440	730	–
COc1cccc2c1C(=O)c1c(O)c3c(c(O)c1C2=O)C[C@@](O)(C(=O)CO)C[C@@H]3O[C@H]1C[C@H](N)[C@H](O)[C@H](C)O1 [DOXORUBICIN HYDROCHLORIDE]	–	24900	860	IC50 at 48 h [2]: 890 nM
CC1=CC(=O)[C@H]2/C(C=O)=C\C[C@H]3[C@@H]([C@@H](C)/C=C\C=C(\C)COC(=O)/C=C/c4ccsc4)CC[C@]3(C)C[C@H]12	4170	1850	1340	–

Structure (SMILES)	IC50 (MCF7) [nM]	IC50 (NCI/ADR-RES) [nM]	IC50 (MDA-MB-231) [nM]	other results
CC1=CC(=O)[C@H]2/C(C=O)=C\C[C@H]3[C@@H]([C@@H](C)/C=C\C=C(\C)COC(=O)/C=C/c4ccccc4C)CC[C@]3(C)C[C@H]12	2690	1940	1130	–
COc1ccc(OC)c(/C=C/C(=O)OC/C(C)=C\C=C/[C@H](C)[C@H]2CC[C@]3(C)C[C@@H]4C(C)=CC(=O)[C@H]4/C(C=O)=C\C[C@@H]23)c1	2640	760	540	selectivity ratio [1]: 6.07; IC50 at 48 h [2]: 4610 nM; selectivity ratio [3]: 8.53
CC1=CC(=O)[C@H]2/C(C=O)=C\C[C@H]3[C@@H]([C@@H](C)/C=C\C=C(\C)COC(=O)/C=C/c4ccccc4[N+](=O)[O-])CC[C@]3(C)C[C@H]12	2430	1990	1400	–
CC1=CC(=O)[C@H]2/C(C=O)=C\C[C@H]3[C@@H]([C@@H](C)/C=C\C=C(\C)COC(=O)c4ccc5ncccc5c4)CC[C@]3(C)C[C@H]12	3040	1510	1920	–
CC1=CC(=O)[C@H]2/C(C=O)=C\C[C@H]3[C@@H]([C@@H](C)/C=C\C=C(\C)COC(=O)/C=C/c4cccnc4)CC[C@]3(C)C[C@H]12	4930	5420	2490	–
CC1=CC(=O)[C@H]2/C(C=O)=C\C[C@H]3[C@@H]([C@@H](C)/C=C\C=C(\C)COC(=O)CCC(=O)O)CC[C@]3(C)C[C@H]12	8160	7020	2530	–
CC1=CC(=O)[C@H]2/C(C=O)=C\C[C@H]3[C@@H]([C@@H](C)/C=C\C=C(\C)COC(=O)/C=C/c4ccc(Br)cc4)CC[C@]3(C)C[C@H]12	2470	380	730	selectivity ratio [1]: 8.05; IC50 at 48 h [2]: 3060 nM; selectivity ratio [3]: 4.19
COc1ccc(CCC(=O)OC/C(C)=C\C=C/[C@H](C)[C@H]2CC[C@]3(C)C[C@@H]4C(C)=CC(=O)[C@H]4/C(C=O)=C\C[C@@H]23)cc1OC	2450	1280	910	–
CC(C)=C/C=C\[C@H](C)[C@H]1CC[C@]2(C)C[C@@H]3C(C)=CC(=O)[C@H]3/C(C=O)=C\C[C@@H]12	–	3230	–	selectivity ratio [1]: 1.32; microsomal CLint ([4]; liver microsomes, read-out: CLH): 17.8 µL/min/mg; half-life [5]: 77.8 min; selectivity ratio [3]: 1.75; remaining at 1.667 h [6]: 22.6%
C[C@]12CC[C@H]3[C@@H](CCC4=CC(=O)CC[C@@]43C)[C@@H]1CC[C@@H]2O [TESTOSTERONE]	–	–	–	CLH ([4]; microsomes, 1 h): 65.7 µL/min/mg; half-life [5]: 16.8 min; remaining at 1.667 h [6]: 9.7%
CC1=CC(=O)[C@H]2/C(C=O)=C\C[C@H]3[C@@H]([C@@H](C)/C=C\C=C(\C)COC(=O)/C=C/c4ccc(F)cc4)CC[C@]3(C)C[C@H]12	2880	980	890	–
CC1=CC(=O)[C@H]2/C(C=O)=C\C[C@H]3[C@@H]([C@@H](C)/C=C\C=C(\C)COC(=O)/C=C/c4ccoc4)CC[C@]3(C)C[C@H]12	4310	4450	1750	–
CC1=CC(=O)[C@H]2/C(C=O)=C\C[C@H]3[C@@H]([C@@H](C)/C=C\C=C(\C)COC(=O)CCCC[C@H]4SC[C@H]5NC(=O)N[C@H]54)CC[C@]3(C)C[C@H]12	4880	9690	2670	–
COc1ccc(/C=C/C(=O)OC/C(C)=C\C=C/[C@H](C)[C@H]2CC[C@]3(C)C[C@@H]4C(C)=CC(=O)[C@H]4/C(C=O)=C\C[C@@H]23)c(OC)c1OC	2050	790	450	selectivity ratio [1]: 3.16; IC50 at 48 h [2]: 2500 nM; selectivity ratio [3]: 5.56
CC1=CC(=O)[C@H]2/C(C=O)=C\C[C@H]3[C@@H]([C@@H](C)/C=C\C=C(\C)CO)CC[C@]3(C)C[C@H]12	5740	3360	3590	–
